Results: paper PMC11783601, “Analogue-Sensitive Inhibition of Histone Demethylases Uncovers Member-Specific Function in Ribosomal Protein Synthesis” (Journal of the American Chemical Society, 2025)

Key:
Type in all cases: biochemical
PHD2 (EGLN1) = target: T1, PHD2 (EGLN1) (Homo sapiens, UniProt Q9GZT9); assay: MALDI-based assay EGLN1 prolyl hydroxylation of peptide; conditions: MALDI-TOF, peptide substrate
T1 construct: Full length EGLN1 construct plasmid with; TEV-His (N); host or cells: E. coli BL21 (DE3)
Description: demethylation events on the peptide. The percent peak area was calculated, and the K27me2, me1,
and me0 peaks were summed to get the relative percent demethylated peptide.
MALDI-based assay for FTO and ALKBH5: To determine the enzymatic activity of FTO and
ALKBH5 recombinant proteins in the presence of L-Leu NOG 6, a previously published methods
were utilized.15, 18 Briefly,10 µM of each protein was incubated in the presence of 10 µM RNA
7.5, 150 mM KCl, 50 µM L-Leu NOG or equivalent volume of water in 10 µL aliquots. The
samples were placed on ice for 10 minutes followed by addition of 200 µM 2OG or equivalent
volume of water. After incubation at 37 °C for 30 minutes, samples were desalted with 3 µL of BT
spotted on a MALDI plate with 1uL sample and 1uL of 3-HPA matrix and monitored with Bruker
FlexControl in the reflectron negative mode and analyzed on Bruker FlexAnalysis software.
Relative inhibition was monitored via assessing percent product decrease with L-Leu NOG
MALDI-based assay for C14orf169 (NO66) and MINA: To monitor the enzymatic activity of […]
(§1) 1 µL S-DHB matrix were spotted on a MALDI plate and monitored with Bruker FlexControl in
(§2) the reflectron positive mode and analyzed on Bruker FlexAnalysis software. […]
was monitored via assessing percent product decrease with L-Leu NOG samples compared to no […]
monitored following a reported method.19 To monitor the enzymatic activity of EGLN1 and 3 […]

KDM6B = target: T2, KDM6B (Homo sapiens, UniProt O15054); assay: MALDI-based assay for KDM6B on H3K27me3 peptide; conditions: MALDI-TOF
T2 construct: The plasmid construct for the catalytic domain of wild type KDM6B; 6xHis (N); made in house; host or cells: E. coli Rosetta [DE3]
Description: (NH4)2Fe(SO4)2, 1 mM L-ascorbic acid, 1 mM NAD+, 200 nM FDH, and 1 µM KDM4A) in varying concentrations (0-10 µM). The experiments were performed in 384-well white Corning plates. The fluorescence intensity was measured with excitation = 340 nm and emission = 490 nm on a TECAN Infinite M1000Pro. Triplicate values were taken for each concentration.
The set up and analysis for IC50 of L-Leu NOG against KDM4A F185A enzyme was similar to that described in the coupled fluorescence assay section, but adjusted to function as an end point […]
2 mM L-ascorbic acid, 1 mM NAD+, 200 nM FDH, 3 µM wild type KDM4A or KDM4A-F185A, and varying concentration of compounds (NOGs 6, 9 and 10) and a substrate cocktail (200 µM 2OG and 60 µM H3K9me3 peptide). Different concentrations of NOG 6 were measured at one […]
For 9 and 10, the same set-up remained, but enzymatic activity was measured via MALDI-TOF analysis, and relative activity and inhibition was calculated for different NOG concentrations as described above. […]
equivalent volume of water in 10 µL aliquots. […] The sample was ionized with Bruker FlexControl in the reflectron positive mode and analyzed on Bruker FlexAnalysis software. The percent demethylated peptide was calculated by first multiplying the K27me1 peak by 2 and the K27me0 peak by 3 to account for the multiple […]
as §2

NO66 = target: T3, NO66 (Homo sapiens, UniProt Q9H6W3); assay: MALDI-based assay for C14orf169 (NO66) histidyl hydroxylation of peptide; conditions: MALDI-TOF, peptide substrate
T3 construct: we recombinantly expressed the catalytic domains of 12 wild type dioxygenases; Tev His Flag (C); host or cells: E. coli BL21 (DE3)
Description: MALDI-based assay for C14orf169 (NO66) and MINA: To monitor the enzymatic activity of
C14orf169 and MINA recombinant proteins, previous methods were utilized.10-11 Briefly, 10 µM
each recombinant protein was incubated with 10 µM peptide substrate (NH2-
Ascorbic Acid, 100 µM Iron (II), 50mM HEPES pH 7.5, and 200 µM L-Leu NOG or equivalent
volume of water in 10 µL water. Aliquots were kept on ice for 10 minutes before addition of 200
µM 2OG or equivalent volume of water. After 30-60 minutes incubation at 37 °C, 1 µL sample and
as §1, §2

T2 sequence (O15054 1339-1502 limits assumed): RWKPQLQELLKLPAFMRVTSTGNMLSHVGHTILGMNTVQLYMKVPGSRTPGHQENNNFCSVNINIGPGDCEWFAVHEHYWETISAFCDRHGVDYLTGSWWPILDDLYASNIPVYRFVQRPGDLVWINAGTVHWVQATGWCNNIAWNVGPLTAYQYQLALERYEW
T1 sequence (Q9GZT9 whole entry): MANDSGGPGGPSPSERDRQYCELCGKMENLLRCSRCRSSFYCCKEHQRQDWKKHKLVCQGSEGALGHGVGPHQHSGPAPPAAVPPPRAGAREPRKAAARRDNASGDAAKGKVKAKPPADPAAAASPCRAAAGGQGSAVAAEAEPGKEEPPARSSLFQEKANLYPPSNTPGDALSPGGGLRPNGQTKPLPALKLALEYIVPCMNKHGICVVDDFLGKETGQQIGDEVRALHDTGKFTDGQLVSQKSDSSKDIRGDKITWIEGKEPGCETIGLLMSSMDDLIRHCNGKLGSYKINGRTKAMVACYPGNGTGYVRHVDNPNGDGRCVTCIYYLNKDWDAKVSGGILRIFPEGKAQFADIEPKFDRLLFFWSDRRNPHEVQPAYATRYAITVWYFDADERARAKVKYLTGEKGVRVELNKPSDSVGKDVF
T3 sequence (Q9H6W3 294-439 limits assumed): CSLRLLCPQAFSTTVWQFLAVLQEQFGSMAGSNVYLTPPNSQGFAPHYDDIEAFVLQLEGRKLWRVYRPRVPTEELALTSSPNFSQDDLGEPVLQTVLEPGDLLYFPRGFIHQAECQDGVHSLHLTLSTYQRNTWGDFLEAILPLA

CC(C)CC(NC(=O)C(=O)O)C(=O)O (stereo not drawn) [compound 6, N-oxalyl leucine]
No inhibition: inhibition of PHD2 (PHD2 (EGLN1)) | inhibition of KDM6B (KDM6B) | inhibition of NO66 (NO66)
